Laboratory results published in patent publication EP4682146A1, “COMPOSITION INCLUDING NOVEL PYRIDOINDOLE DERIVATIVE COMPOUND AS ACTIVE INGREDIENT FOR PREVENTION OR TREATMENT OF NEURODEGENERATIVE DISEASES” (Neurotarge Co., Ltd., priority 2023, dated 2024).

What follows are compounds tested against T1, Tau-Synaptogyrin3 interaction (Homo sapiens, UniProt O43761+P10636) (assay: Cell-based split luciferase (NanoBit) protein complementary assay for Tau-Synaptogyrin3 interaction in stable cell line HEK293T-TK252-1E2). Settings: HEK293T-TK252-1E2 cells, 48 hrs compound treatment, L/F value (luciferase activity/fluorescent intensity) compared to DMSO control.
T1 construct: expressed in transfected cells
Method: Live cell luciferase assay: Live cell luciferase activity was measured using NanoGlo® Live Cell Assay System (Cat# N2012. Promega, WI, USA), according to manufacturer's instruction. All microplate-based measurement was performed with BioTek Synergy H1 (Agilent. CA, USA).
For producing HEK293T-TK252 stable cell line for screening, BglII-linearized pTK252 was transfected to HEK293T cells. After 24 hrs transfection, the transfected cells were cultured in the culture media containing 1 µg/ml puromycin (10 mM in DMSO, Cat# J61278/ Alfa Aesar. ThermoFisher Korea, Seoul, Korea) for 9 days. Regular media change was performed in every 3 days with fresh puromycin of indicating concentration during the whole selection period. The selected cells were trypsinized and diluted to 5 cells/ml and seeded to 4x 96 well cell culture plates (100 µl/well), and cultured with the cell culture media containing 1 µg/ml puromycin for 11 days. 18 wells that contained only GFP-positive cells were selected for expansion, and cultured with the cell culture media containing 0.1-0.2 µg/ml puromycin for 14 days. 10 clones were discarded during the expansion due to emerging of non-GFP cells, and 8 clones were validated. The selected clone (1E2) was cultured with the cell culture media containing 0.5 µg/ml puromycin for further experiments.
3 µmol of 1,728 compounds were purchased from Otava Chemicals MB (Vilniaus, Lithuania), dissolved into 300 µl DMSO (10 mM) and stored at -80°C. 4x10^4 HEK293T-TK252-1E2 cells were seeded with 100 µl of the cell culture media into 96 white well cell culture plates (Cat# 30196. SPL, Seoul, Korea), 48 hrs prior to compound treatment. For 10 µM compound treatment, 10 mM compound stock was diluted to 50 µM with the cell culture media, and 25 µl of the diluted compound was added to the designated wells of the 96 well plates. For dose-response experiments, the amount of compounds for dilution was adjusted to fit the volume indicated above. After 48 hrs compound treatment, the cells were washed once with OptiMEM and live cell luciferase activity, fluorescent intensity and fluorescence area scan was measured.
1,728 compounds were treated at 10 µM to HEK293T-TK252-1E2 cells and incubated for 48 hrs. […] Single wash step with culture media without FBS was included before measurement to discard dead cells and to remove FBS that affects luciferase assay. […] Fluorescent intensity was taken for normalization, which is expected to be proportion to the cell number at the measuring point. L/F value which is luciferase activity normalized with fluorescent intensity (L/F = Luciferase activity/ Fluorescent intensity) was calculated for all measurements and compared to L/F value of DMSO controls to calculated the size of inhibitory effect. […] Fluorescence area scan (FA) performed right after luciferase activity and fluorescent intensity measurement, to validate total remaining fluorescent cells in a well as a proxy to the cellular toxicity. FA value was in proportion to WST assay results (data not shown), and average CV of triplicates of all measurements was 0.04.
61 compounds were further tested for dose-response profile, based on inhibitory effect that was measured by L/F value (<60%) and FA-based cell viability (>90%) at 10 µM compared to DMSO control. 10 compounds were considered as hit compounds through three times of reproduction.

T1 sequence (P10636 1-441 isoform P10636-8): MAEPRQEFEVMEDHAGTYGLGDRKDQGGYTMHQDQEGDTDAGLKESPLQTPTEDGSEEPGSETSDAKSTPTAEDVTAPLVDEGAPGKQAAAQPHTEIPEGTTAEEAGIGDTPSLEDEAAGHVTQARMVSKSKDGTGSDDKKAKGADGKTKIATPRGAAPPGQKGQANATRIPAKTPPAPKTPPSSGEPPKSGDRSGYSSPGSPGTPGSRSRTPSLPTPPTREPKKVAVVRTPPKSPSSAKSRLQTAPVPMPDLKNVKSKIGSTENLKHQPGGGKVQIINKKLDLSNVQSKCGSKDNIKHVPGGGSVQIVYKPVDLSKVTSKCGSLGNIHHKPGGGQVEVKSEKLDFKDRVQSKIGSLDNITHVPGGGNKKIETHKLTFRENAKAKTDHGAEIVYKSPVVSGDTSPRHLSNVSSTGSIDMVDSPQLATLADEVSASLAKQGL
T1 sequence (O43761 whole entry): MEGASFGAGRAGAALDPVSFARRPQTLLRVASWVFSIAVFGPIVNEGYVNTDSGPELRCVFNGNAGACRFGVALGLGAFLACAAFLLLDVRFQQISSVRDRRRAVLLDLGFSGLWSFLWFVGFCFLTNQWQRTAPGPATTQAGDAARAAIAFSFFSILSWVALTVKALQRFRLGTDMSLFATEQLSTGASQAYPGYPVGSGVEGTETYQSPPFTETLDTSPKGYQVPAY

| SMILES | IC50 [µM] |
| --- | --- |
| Cc1cccc(-c2ccc3[nH]c4c(c3c2)CN(C(=O)c2cccnc2)CC4)c1 [Formula 27, Pyridin-3-yl(8-(m-tolyl)-1,3,4,5-tetrahydro-2H-pyrido[4,3-b]indol-2-yl)methanone] | < 3 |
| O=C(c1cccnc1)N1CCc2[nH]c3cc(-c4ccccc4)ccc3c2C1 [Formula 35, (7-phenyl-1,3,4,5-tetrahydro-2H-pyrido[4,3-b]indol-2-yl)(pyridin-3-yl)methanone] | 3 to 12 |
| Cc1ccc(-c2ccc3[nH]c4c(c3c2)CN(C(=O)C2CCCCC2)CC4)cc1 [Formula 36, Cyclohexyl(8-(p-tolyl)-1,3,4,5-tetrahydro-2H-pyrido[4,3-b]indol-2-yl)methanone] | 3 to 12 |
| O=C(c1ccccc1)N1CCc2[nH]c3ccc(-c4ccc(C5CCCCC5)cc4)cc3c2C1 [Formula 66, (8-(4-Cyclohexylphenyl)-1,3,4,5-tetrahydro-2H-pyrido[4,3-b]indol-2-yl)(phenyl)methanone] | 12 to 25 |
| Cc1cncc(C(=O)N2CCc3[nH]c4ccc(-c5ccccc5)cc4c3C2)c1 [Formula 4, (5-methylpyridin-3-yl)(8-phenyl-1,3,4,5-tetrahydro-2H-pyrido[4,3-b]indol-2-yl)methanone] | 3 to 12 |
| O=C(c1ccccc1)N1CCc2[nH]c3ccc(-c4ccc(Cl)cc4)cc3c2C1 [Formula 70, (8-(4-chlorophenyl)-1,3,4,5-tetrahydro-2H-pyrido[4,3-b]indol-2-yl)(phenyl)methanone] | < 3 |
| Cc1ccc(C(=O)N2CCc3[nH]c4ccc(-c5ccc(C)cc5)cc4c3C2)cc1 [Formula 37, p-Tolyl(8-(p-Tolyl)-1,3,4,5-tetrahydro-2H-pyrido[4,3-b]indol-2-yl)methanone] | < 3 |
| Cc1ccc(C(=O)N2CCc3[nH]c4ccc(-c5ccccc5)cc4c3C2)cn1 [Formula 5, (6-methylpyridin-3-yl)(8-phenyl-1,3,4,5-tetrahydro-2H-pyrido[4,3-b]indol-2-yl)methanone] | 3 to 12 |
| Cc1ccc(-c2ccc3[nH]c4c(c3c2)CN(C(=O)c2ccc(C)nc2)CC4)cc1 [Formula 40, (6-methylpyridin-3-yl)(8-(p-tolyl)-1,3,4,5-tetrahydro-2H-pyrido[4,3-b]indol-2-yl)methanone] | < 3 |
| Cc1ccc(C(=O)N2CCc3[nH]c4ccc(-c5ccc(C)nc5)cc4c3C2)cn1 [Formula 49, (6-methylpyridin-3-yl)(8-(6-methylpyridin-3-yl)-1,3,4,5-tetrahydro-2H-pyrido[4,3-b]indol-2-yl)methanone] | 12 to 25 |
| Cc1ccc(-c2ccc3[nH]c4c(c3c2)CN(C(=O)c2ccccc2)CC4)cc1 [Formula 30, Phenyl(8-(p-tolyl)-1,3,4,5-tetrahydro-2H-pyrido[4,3-b]indol-2-yl)methanone] | < 3 |
| Cc1ccccc1-c1ccc2[nH]c3c(c2c1)CN(C(=O)c1cccc2c1ccn2C)CC3 [Formula 24, (1-methyl-1H-indol-4-yl)(8-(o-tolyl)-1,3,4,5-tetrahydro-2H-pyrido[4,3-b]indol-2-yl)methanone] | 3 to 12 |
| O=C(c1cccnc1)N1CCc2[nH]c3ccc(Nc4ccc(Cl)cc4)cc3c2C1 [Formula 32, (8-((4-chlorophenyl)amino)-1,3,4,5-tetrahydro-2H-pyrido[4,3-b]indol-2-yl)(pyridin-3-yl)methanone] | < 3 |
| Cc1cnc(C(=O)N2CCc3[nH]c4ccc(-c5ccccc5)cc4c3C2)cn1 [Formula 6, (5-methylpyrazin-2-yl)(8-phenyl-1,3,4,5-tetrahydro-2H-pyrido[4,3-b]indol-2-yl)methanone] | 12 to 25 |
| CN(C)c1ccc(-c2ccc3[nH]c4c(c3c2)CN(C(=O)c2ccccc2)CC4)cc1 [Formula 73, (8-(4-(Dimethylamino)phenyl)-1,3,4,5-tetrahydro-2H-pyrido[4,3-b]indol-2-yl)(phenyl)methanone] | 3 to 12 |
| O=S(=O)(c1cccnc1)N1CCc2[nH]c3cc(-c4ccccc4)ccc3c2C1 [Formula 34, 7-phenyl-2-(pyridin-3-ylsulfonyl)-2,3,4,5-tetrahydro-1H-pyrido[4,3-b]indole] | 3 to 12 |
| Cc1ccccc1-c1ccc2[nH]c3c(c2c1)CN(C(=O)c1cccnc1)CC3 [Formula 20, Pyridin-3-yl(8-(o-tolyl)-1,3,4,5-tetrahydro-2H-pyrido[4,3-b]indol-2-yl)methanone] | 3 to 12 |

| SMILES | IC50 [µM] |
| --- | --- |
| Cc1ccc(C(=O)N2CCc3[nH]c4ccc(-c5ccc(C6CCCCC6)cc5)cc4c3C2)cn1 [Formula 67, (8-(4-Cyclohexylphenyl)-1,3,4,5-tetrahydro-2H-pyrido[4,3-b]indol-2-yl)(6-methylpyridin-3-yl)methanone] | 3 to 12 |
| O=C(c1ccccc1)N1CCc2[nH]c3ccc(-c4cccnc4)cc3c2C1 [Formula 42, Phenyl(8-(pyridin-3-yl)-1,3,4,5-tetrahydro-2H-pyrido[4,3-b]indol-2-yl)methanone] | 12 to 25 |
| Cc1ccc(C(=O)N2CCc3[nH]c4ccc(-c5ccccc5C#N)cc4c3C2)cc1 [Formula 59, 2-(2-(4-Methylbenzoyl)-2,3,4,5-tetrahydro-1H-pyrido[4,3-b]indol-8-yl)benzonitrile] | 3 to 12 |
| Cc1ccccc1-c1ccc2[nH]c3c(c2c1)CN(C(=O)c1ccncc1)CC3 [Formula 21, Pyridin-4-yl(8-(o-tolyl)-1,3,4,5-tetrahydro-2H-pyrido[4,3-b]indol-2-yl)methanone] | 3 to 12 |
| Cc1ccc(C(=O)N2CCc3[nH]c4ccc(-c5cccc(C#N)c5)cc4c3C2)cc1 [Formula 56, 3-(2-(4-Methylbenzoyl)-2,3,4,5-tetrahydro-1H-pyrido[4,3-b]indol-8-yl)benzonitrile] | 3 to 12 |
| O=C(c1ccccc1)N1CCc2[nH]c3ccc(Nc4ccc(Cl)cc4)cc3c2C1 [Formula 33, (8-((4-chlorophenyl)amino)-1,3,4,5-tetrahydro-2H-pyrido[4,3-b]indol-2-yl)(phenyl)methanone] | 3 to 12 |
| Cc1ccccc1-c1ccc2[nH]c3c(c2c1)CN(C(=O)c1nccs1)CC3 [Formula 25, Thiazol-2-yl(8-(o-tolyl)-1,3,4,5-tetrahydro-2H-pyrido[4,3-b]indol-2-yl)methanone] | 3 to 12 |
| Cc1cccc(-c2ccc3[nH]c4c(c3c2)CN(C(=O)c2ccccc2)CC4)c1 [Formula 28, Phenyl(8-(m-tolyl)-1,3,4,5-tetrahydro-2H-pyrido[4,3-b]indol-2-yl)methanone] | < 3 |
| Cc1ccc(-c2ccc3[nH]c4c(c3c2)CN(C(=O)c2cccnc2)CC4)cc1 [Formula 29, Pyridin-3-yl(8-(p-tolyl)-1,3,4,5-tetrahydro-2H-pyrido[4,3-b]indol-2-yl)methanone] | < 3 |
| O=C(c1cnccn1)N1CCc2[nH]c3ccc(-c4ccccc4)cc3c2C1 [Formula 7, (8-phenyl-1,3,4,5-tetrahydro-2H-pyrido[4,3-b]indol-2-yl)(pyrazin-2-yl)methanone] | 3 to 12 |
| N#Cc1cccc(-c2ccc3[nH]c4c(c3c2)CN(C(=O)c2ccccc2)CC4)c1 [Formula 58, 3-(2-benzoyl-2,3,4,5-tetrahydro-1H-pyrido[4,3-b]indol-8-yl)benzonitrile] | 3 to 12 |
| Cc1ccc(C(=O)N2CCc3[nH]c4ccc(-c5ccc(C#N)cc5)cc4c3C2)cn1 [Formula 54] | 3 to 12 |
| Cc1cccc(C(=O)N2CCc3[nH]c4ccc(-c5ccc(C#N)cc5)cc4c3C2)c1 [Formula 53] | 3 to 12 |
| Cc1ccc(-c2ccc3[nH]c4c(c3c2)CN(C(=O)c2cccc(C)c2)CC4)cc1 [Formula 38, m-Tolyl(8-(p-Tolyl)-1,3,4,5-tetrahydro-2H-pyrido[4,3-b]indol-2-yl)methanone] | 12 to 25 |
| Cc1ccc(-c2ccc3c(c2)c2c(n3C)CCN(C(=O)c3ccccc3)C2)cc1 [Formula 43, (5-methyl-8-(p-tolyl)-1,3,4,5-tetrahydro-2H-pyrido[4,3-b]indol-2-yl)(phenyl)methanone] | 3 to 12 |
| N#Cc1ccc(-c2ccc3[nH]c4c(c3c2)CN(C(=O)c2cccc(C#N)c2)CC4)cc1 [Formula 55] | 12 to 25 |
| Cc1ccc(C(=O)N2CCc3[nH]c4ccc(-c5ccc(C#N)cc5)cc4c3C2)cc1 [Formula 52] | < 3 |
